Read-outs that look alike come from different tables or passages of the source. Marks after values point to notes of the source that are not given here.
Columns and labels:
[1] = male, ICR, mouse; for F NCA (absolute oral bioavailability) / AUC0–∞ / C max / T max: in vivo, 100 mg/kg; for AUC0–∞ / C max / T max / in vivo isomerization in plasma: po
Description: (§1) All animal experiments were performed in the I Tech Lab. Co., Ltd (Gifu, Japan). The study protocol was approved by the Institutional Animal Care and Use Committee of the company (approval numbers: ITL-25-MO-385 for the oral administration test and ITL-25-MV-386 for the intravenous injection test). Slc:ICR (ICR) male mice aged 7–8 weeks, supplied by Japan SLC Inc. (Shizuoka, Japan), were used in this study. The body weight of the mice at the beginning of the experiments ranged from 42.8 to 52.3 g. The mice were maintained under stable laboratory conditions (temperature: 18–28 °C; humidity: 30–80%; 12 h light/dark cycle) and provided with drinking water and a standard laboratory diet (MF; Oriental Yeast Co., Ltd, Tokyo, Japan) throughout the acclimation and testing periods. After an 11-day acclimation period, single oral administration and intravenous injection tests were conducted. For the oral administration test, 15 mice were randomly assigned to four groups: control (placebo; soybean oil administered), (all-E)-astaxanthin administered (n = 4), (9Z)-astaxanthin administered (n = 4), and (13Z)-astaxanthin administered (n = 4). Each astaxanthin isomer was administered to mice at a dose of 100 mg per kg body weight. […] Blood samples were collected before and 3, 6, 9, 12, and 24 h after the administration of the test diets. Fecal samples were collected 6–24 h after administering astaxanthin. In the intravenous injection test, 15 mice were randomly assigned to four groups: control (placebo; solvent intravenously injected), (all-E)-astaxanthin intravenously injected (n = 4), (9Z)-astaxanthin intravenously injected (n = 4), and (13Z)-astaxanthin intravenously injected (n = 4). Each astaxanthin isomer was intravenously injected into mice at a dose of 10 mg per kg body weight.[24] Blood samples were collected before and 1, 3, 6, 9, and 12 h after injecting the test samples. After these tests, the mice were sacrificed by exsanguination under anesthesia (ketamine hydrochloride and xylazine hydrochloride), and the liver was collected. Plasma samples were prepared from heparin-treated blood by centrifugation. The collected plasma, liver, and fecal samples were immediately stored at −80 °C under dark condition until just before astaxanthin extraction.
(§2) Astaxanthin isomers in the plasma, liver, and fecal samples were extracted according to previous reports.[14,15] In brief, astaxanthin isomers in plasma were extracted using hexane containing 0.01% BHT. An equal volume of methanol was added to each plasma sample to precipitate the proteins prior to hexane extraction. The extraction was performed three times using a vortex mixer for 30 s. After separating the hexane and aqueous layers by centrifugation, the hexane layer was carefully collected and removed using an evaporator. The obtained solid was dissolved in a mixture of hexane and ethyl acetate (9 : 1), filtered through a 0.22 μm PTFE membrane filter, and analyzed using HPLC. Astaxanthin isomers in liver and fecal samples were extracted using acetone containing 0.01% BHT. The samples were ultrasonicated at 80 W and 38 kHz for 30 min in ice water (∼5 °C) to facilitate extraction. The extraction residue was separated from the extraction liquid using a 0.22 μm PTFE membrane filter. The filtrate containing astaxanthin isomers was concentrated to dryness using an evaporator. Finally, the residue was dissolved in a mixture of hexane and ethyl acetate (9 : 1), filtered through a 0.22 μm PTFE membrane filter, and analyzed using HPLC. To minimize the isomerization and degradation of astaxanthin during the extraction process, heat and light exposure were carefully controlled.

[2] = mouse, iv; for AUC0–∞ / C max: in vivo, 10 mg/kg
Description: as §1, §2

For `CC(C=CC=C(C)C=CC1=C(C)C(=O)C(O)CC1(C)C)=CC=CC=C(C)C=CC=C(C)C=CC1=C(C)C(=O)C(O)CC1(C)C` (stereo not drawn) [(9Z)-Astaxanthin, (9Z)-astaxanthin], the “F NCA (absolute oral bioavailability)” value [1] was 0.04, the “AUC0–∞” value [1] was 4330 ± 2070 ng·h/mL and the C max [1] was 1010 ± 510 ng/mL. The T max [1] was 4 h, the “in vivo isomerization in plasma” value [1] was “isomerized into a variety of Z-isomers, including the all-E-, 13Z-, and 15Z-isomers, and two unidentified Z-isomers” and the “AUC0–∞” value ([2]; male, ICR) was 19400 ± 3300 ng·h/mL. For the same molecule, the C max ([2]; male, ICR) was 2030 ± 160 ng/mL and the “in vivo isomerization in plasma” value [2] was “markedly limited isomerization”.
In the case of `CC(C=CC=C(C)C=CC1=C(C)C(=O)C(O)CC1(C)C)=CC=CC=C(C)C=CC=C(C)C=CC1=C(C)C(=O)C(O)CC1(C)C` (stereo not drawn) [(13Z)-Astaxanthin, (13Z)-astaxanthin], the “F NCA (absolute oral bioavailability)” value [1] is reported as 0.18, the “AUC0–∞” value [1] is reported as 82200 ± 57400 ng·h/mL and the C max [1] is reported as 7700 ± 5090 ng/mL. For the same molecule, the T max [1] was 6 h, the “in vivo isomerization in plasma” value [1] was “a minor portion of the 13Z-isomer isomerized to the all-E-isomer” and the “AUC0–∞” value ([2]; male, ICR) was 127100 ± 32400 ng·h/mL. For the same molecule, the C max ([2]; male, ICR) was 5460 ± 1340 ng/mL and the “in vivo isomerization in plasma” value [2] was “the isomer composition remained relatively stable”.
With `CC(C=CC=C(C)C=CC1=C(C)C(=O)C(O)CC1(C)C)=CC=CC=C(C)C=CC=C(C)C=CC1=C(C)C(=O)C(O)CC1(C)C` (stereo not drawn) [(all-E)-Astaxanthin, (all-E)-astaxanthin] the “F NCA (absolute oral bioavailability)” value [1] was 0.12, the “AUC0–∞” value [1] was 1460 ± 1350 ng·h/mL and the C max [1] was 10 ± 10 ng/mL. The T max [1] was 3 (9) ^d h, the “in vivo isomerization in plasma” value [1] was “a small portion of (all-E)-astaxanthin was converted to the 13Z- and 15Z-isomers” and the “AUC0–∞” value ([2]; male, ICR) was 310 ± 200 ng·h/mL. The C max ([2]; male, ICR) was 100 ± 70 ng/mL and the “in vivo isomerization in plasma” value ([2]; male, ICR) was “the proportion of the 13Z-isomer gradually increased over time”.

— article PMC12598559, “Absorption characteristics and in vivo behavior of astaxanthin isomers: insights from the administration of highly purified (all-E)-, (9Z)-, and (13Z)-astaxanthin in male mice” (RSC Advances, 2025)
